Results published in patent US7923465B2, “Cannabinoid receptor ligands, pharmaceutical compositions containing them, and process for their preparation” (priority 2005, dated 2011).
Read-outs that look alike come from different tables or passages of the source.

Legend:
hCB2 = hCB2 (Homo sapiens, UniProt P34972); assay: In vitro binding assay using hCB2-CHO membranes, [3H]-CP-55,940 displacement (Protocol IV); parameters: expressed in transfected cells; host or cells: CHO (hCB2-CHO, generated in-house); conditions: 1 h, read-out: % Displacement Protocol IV
Chain of hCB2 (P34972 whole entry): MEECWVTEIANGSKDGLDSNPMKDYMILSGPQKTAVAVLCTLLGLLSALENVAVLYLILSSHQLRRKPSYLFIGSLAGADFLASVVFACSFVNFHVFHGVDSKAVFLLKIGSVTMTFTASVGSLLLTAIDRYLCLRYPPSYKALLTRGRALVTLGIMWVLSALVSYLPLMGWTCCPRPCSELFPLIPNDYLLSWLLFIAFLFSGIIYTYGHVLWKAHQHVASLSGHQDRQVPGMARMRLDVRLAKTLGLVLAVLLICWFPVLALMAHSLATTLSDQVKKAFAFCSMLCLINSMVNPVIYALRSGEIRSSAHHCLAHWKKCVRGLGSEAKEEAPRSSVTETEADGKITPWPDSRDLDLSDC
In short: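 Compounds were tested at a single 300 nM final concentration for displacing 0.75 nM [3H]-CP-55,940 from hCB2-CHO membranes (1 h, 30 °C, 50 mM Tris pH 7.4, 5 mM MgCl2, 1 mM EDTA, 0.1% BSA). Filter-bound radioactivity was counted, with 0.5 μM unlabelled CP-55,940 for nonspecific binding; results are % displacement.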

CB1 = CB1 (Rattus norvegicus, UniProt P20272); assay: Rat CB1 receptor binding using brain membrane, [3H]SR141716A displacement (Protocol I); parameters: CB1 receptor present in a rat brain membrane preparation; from tissue; host or cells: rat brain membrane; inhibition: dose or concentration left out as unconfirmed; conditions: 1 h
Chain of CB1 (P20272 whole entry): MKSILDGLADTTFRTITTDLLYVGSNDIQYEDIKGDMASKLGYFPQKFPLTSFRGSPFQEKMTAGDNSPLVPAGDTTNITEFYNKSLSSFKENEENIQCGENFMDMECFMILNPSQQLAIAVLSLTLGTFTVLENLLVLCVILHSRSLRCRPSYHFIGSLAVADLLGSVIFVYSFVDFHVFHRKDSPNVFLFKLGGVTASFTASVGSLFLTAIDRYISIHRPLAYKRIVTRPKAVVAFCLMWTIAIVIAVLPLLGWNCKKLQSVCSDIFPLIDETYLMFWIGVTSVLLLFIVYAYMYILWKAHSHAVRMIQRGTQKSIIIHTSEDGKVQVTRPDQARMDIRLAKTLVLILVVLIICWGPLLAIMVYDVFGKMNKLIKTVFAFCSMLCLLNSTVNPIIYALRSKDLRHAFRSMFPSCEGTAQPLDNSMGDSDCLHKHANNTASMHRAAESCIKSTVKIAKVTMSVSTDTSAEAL
Procedure: I. In Vitro Protocol for Rat CB1 Receptor Binding Using Brain Membrane
In this assay, [^3H]SR141716A (5-(4-chlorophenyl)-1-(2,4-dichlorophenyl)-4-methyl-N-(1-piperidyl)pyrazole-3-carboxamide) was used to bind the CB1 receptor present in a rat brain membrane preparation which can be displaced by unlabeled ligands having affinity to the CB1 receptor.
The assay was performed according to the modified method of Thomas et al., 1998 (JPET 285: 285-292). The total reaction mixture ([…]) contained Tris-BSA buffer (50 mM Tris, pH 7.4 with 1.5% BSA) or unlabeled SR141716A […] or test samples […], [^3H] SR141716A (2 nM) and […] of rat brain membrane. The non-specific binding was defined by […] of SR141716A. The assay mixture was incubated at 37° C. for 1 hour. The reaction was then stopped by rapid filtration under vacuum using Whatman GF/B-96 micro filter plate. A scintillation cocktail was added and radioactive counts were measured using a Topcount beta scintillation counter.
The standard and test sample dilutions were made in an assay buffer containing either ethanol or DMSO at a final concentration of 1%.
The percent (%) displacement by a test ligand was calculated by comparing the specific bound values.

[1] = hCB2-CHO membranes, [3H]-CP-55,940 displacement
[2] = rat brain membrane, [3H]SR141716A displacement, read-out: % Displacement Protocol I

Compound	melting point [°C]	inhibition at 0.3 µM (hCB2; [1]) [%]	inhibition (CB1; [2]) [%]	inhibition at 0.3 µM (hCB2) [%]	inhibition (CB1; read-out: % Displacement Protocol I, rat brain membrane, [3H]SR141716A displacement) [%]
O=C(NN1CCCCC1)c1nn(-c2ccc(Cl)cc2)c2c1C1CCC2C1 (stereo not drawn) [Example 209, N(3)-Piperidino-1-(4-chlorophenyl)-4,5,6,7-tetrahydro-1H-4,7-methano-indazole-3-carboxamide]	78 to 81	50.5	23.5		
O=C(Nc1ccccc1)c1nn(-c2ccc(Cl)cc2)c2c1C1CCC2C1 (stereo not drawn) [Example 214, N(3)-Phenyl-1-(4-chlorophenyl)-4,5,6,7-tetrahydro-1H-4,7-methano-indazole-3-carboxamide]	137 to 140	41.3	10.1		
O=C(Nc1ccc(Cl)cc1)c1nn(-c2ccc(Cl)cc2)c2c1C1CCC2C1 (stereo not drawn) [Example 216, N(3)-(4-Chlorophenyl)-1-(4-chlorophenyl)-4,5,6,7-tetrahydro-1H-4,7-methano-indazole-3-carboxamide]	182 to 184	20.7	32.2		
O=C(NCc1ccccc1)c1nn(-c2ccc(Cl)cc2)c2c1C1CCC2C1 (stereo not drawn) [Example 220, N(3)-Benzyl-1-(4-chlorophenyl)-4,5,6,7-tetrahydro-1H-4,7-methano-indazole-3-carboxamide]	112 to 115	25.3	29.5		
O=C(NCc1ccc(Cl)cc1)c1nn(-c2ccc(Cl)cc2)c2c1C1CCC2C1 (stereo not drawn) [Example 222, N(3)-(4-Chlorobenzyl)-1-(4-chlorophenyl)-4,5,6,7-tetrahydro-1H-4,7-methano-indazole-3-carboxamide]	157 to 160	15.7	39.4		
O=C(NNc1ccccc1)c1nn(-c2ccc(Cl)cc2)c2c1C1CCC2C1 (stereo not drawn) [Example 228, N(3)-Phenylamino-1-(4-chlorophenyl)-4,5,6,7-tetrahydro-1H-4,7-methano-indazole-3-carboxamide]	138 to 141	9.4	16.1		
O=C(NNc1ccc(Cl)cc1)c1n[nH]c2c1C1(c3ccc(Cl)cc3)CCC2C1 (stereo not drawn) [Example 229, N(3)-[(4-Chlorophenyl)amino]-4-(4-chlorophenyl)-4,5,6,7-tetrahydro-1H-4,7-methano-indazole-3-carboxamide]	202 to 205	24.6	47.1		
O=C(NNc1ccccc1F)c1nn(-c2ccc(Cl)cc2)c2c1C1CCC2C1 (stereo not drawn) [Example 232, N(3)-[(2-Fluorophenyl)amino]-1-(4-chlorophenyl)-4,5,6,7-tetrahydro-1H-4,7-methano-indazole-3-carboxamide]	91	13.8	49.7		
O=C(NNc1ccc(F)cc1)c1nn(-c2ccc(Cl)cc2)c2c1C1CCC2C1 (stereo not drawn) [Example 234, N(3)-[(4-Fluorophenyl)amino]-1-(4-chlorophenyl)-4,5,6,7-tetrahydro-1H-4,7-methano-indazole-3-carboxamide]	212	10.6	36.3		
O=C(Nn1cnnc1)c1nn(-c2ccc(Cl)cc2Cl)c2c1C1CCC2C1 (stereo not drawn) [Example 240, N(3)-(4H-1,2,4-triazol-4-yl)-1-(2,4-dichlorophenyl)-4,5,6,7-tetrahydro-1H-4,7-methano-indazole-3-carboxamide]	231 to 233	7.98	1.5		
O=C(NCc1ccc(Cl)cc1)c1nn(-c2ccc(Cl)cc2Cl)c2c1C1CCC2C1 (stereo not drawn) [Example 250, N(3)-(4-Chlorobenzyl)-1-(2,4-dichlorophenyl)-4,5,6,7-tetrahydro-1H-4,7-methano-indazole-3-carboxamide]	139 to 142	27.9	27.1		
O=C(NNc1ccc(Cl)cc1)c1nn(-c2ccc(Cl)cc2Cl)c2c1C1CCC2C1 (stereo not drawn) [Example 259, N(3)-[(4-Chlorophenyl)amino]-1-(2,4-dichlorophenyl)-4,5,6,7-tetrahydro-1H-4,7-methano-indazole-3-carboxamide]	141 to 144	33.3	18.3		
O=C(NNc1ccc(Cl)c(Cl)c1)c1nn(-c2ccc(Cl)cc2Cl)c2c1C1CCC2C1 (stereo not drawn) [Example 262, N(3)-[(3,4-Dichlorophenyl)amino]-1-(2,4-dichlorophenyl)-4,5,6,7-tetrahydro-1H-4,7-methano-indazole-3-carboxamide]	176 to 179	32.6	-1.6		
O=C(NN1CCCCC1)c1nn(-c2ccccc2Br)c2c1C1CCC2C1 (stereo not drawn) [Example 270, N(3)-Piperidino-1-(2-bromophenyl)-4,5,6,7-tetrahydro-1H-4,7-methano-indazole-3-carboxamide]	236	8.62	-14.6		
O=C(NC1CCCCC1)c1nn(-c2ccccc2Br)c2c1C1CCC2C1 (stereo not drawn) [Example 271, N(3)-Cyclohexyl-1-(2-bromophenyl)-4,5,6,7-tetrahydro-1H-4,7-methano-indazole-3-carboxamide]	178			46	11.7
O=C(NCc1ccccc1)c1nn(-c2ccccc2Br)c2c1C1CCC2C1 (stereo not drawn) [Example 272, N(3)-Benzyl-1-(2-bromophenyl)-4,5,6,7-tetrahydro-1H-4,7-methano-indazole-3-carboxamide]	110	18.4	-4.5		
O=C(NNc1ccccc1)c1nn(-c2ccccc2Br)c2c1C1CCC2C1 (stereo not drawn) [Example 273, N(3)-Phenylamino-1-(2-bromophenyl)-4,5,6,7-tetrahydro-1H-4,7-methano-indazole-3-carboxamide]	219	26.2	-5.9		
O=C(NN1CCCCC1)c1nn(-c2ccc(Br)cc2)c2c1C1CCC2C1 (stereo not drawn) [Example 274, N(3)-Piperidino-1-(4-bromophenyl)-4,5,6,7-tetrahydro-1H-4,7-methano-indazole-3-carboxamide]	173	35.4	25.7		
O=C(NCc1ccccc1)c1nn(-c2ccc(Br)cc2)c2c1C1CCC2C1 (stereo not drawn) [Example 276, N(3)-Benzyl-1-(4-bromophenyl)-4,5,6,7-tetrahydro-1H-4,7-methano-indazole-3-carboxamide]	89	14.1	25.3		
O=C(NNc1ccccc1)c1nn(-c2ccc(Br)cc2)c2c1C1CCC2C1 (stereo not drawn) [Example 277, N(3)-Phenylamino-1-(4-bromophenyl)-4,5,6,7-tetrahydro-1H-4,7-methano-indazole-3-carboxamide]	138	22.1	-12.8		
O=C(NNc1ccccc1)c1nn(-c2ccc(F)cc2)c2c1C1CCC2C1 (stereo not drawn) [Example 284, N(3)-Phenylamino-1-(4-fluorophenyl)-4,5,6,7-tetrahydro-1H-4,7-methano-indazole-3-carboxamide]	163	0.9	13.7		
